From patent US20250288704A1, “CXCR4-LIGANDS FOR DIAGNOSTIC AND THERAPEUTIC USE AND PRECURSORS THEREOF” (priority 2021, published 2025) come the findings set out here.

Data set [1] deals with CXCR4-expressing Chem_1 cells. In words: Determination of internalization, dual tracer with 125I-Fc-131. In kind it is cell-based. Conditions: for Cell-bound [%] / Internalized [%]: of total cellular activity. A digest of the protocol:
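Receptor blockade used AMD3100 (1 mM stock) versus medium-treated wells, triplicate per time point, in Chem_1 cells cultured at 37 °C in DMEM-F12/10% FBS. Activity of supernatant, surface-bound and internalized (1 M NaOH) fractions measured by γ-counter, corrected for non-specific uptake and normalised to standard ligand.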

Data set [2] can be described thus: Octanol/PBS partition coefficient (logD7.4). In kind it is physicochemical. Conditions: n-octanol/PBS pH 7.4, radiolabeled compound. On the procedure:
The tubes were vortexed at maximum speed for 3 min to ensure equilibrium before centrifugation at 15.000×g for 5 min on a Biofuge 15 from Heraeus Holding GmbH (Osterode, Germany). An aliquot of 100 μL of each fraction was measured in the γ-counter and the log D7.4 calculated as follows: […]

Data set [3] deals with Jurkat tumor-bearing CB-17 SCID mice. The experiment in a line: Biodistribution in Jurkat tumor-bearing CB-17 SCID mice. The class given is in vivo. To be noted: 1 h p.i., 1 mouse. A digest of the protocol:
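Radioligand (125I, 177Lu, 99mTc, 18F or 68Ga label; roughly 0.5-20 MBq, 0.02-0.20 nmol) was injected intravenously via tail vein. Hosts were CB17-SCID mice with subcutaneous Jurkat tumors of 5-8 mm, 4-10 weeks post-inoculation. Dissected organs were weighed and counted in a γ-counter.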

In data set [4] the target is T1, CXCR4 (Homo sapiens, UniProt P61073). In words: Determination of IC50: competition with 125I-Fc-131 on CXCR4-positive Jurkat cells.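 Further: test compound at 10^−5 to 10^−11 M competed for 2 h at 8 °C with the radioligand on 400,000 cells per well, bound versus free activity measured by γ-counting.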 Further details: CXCR4-positive Jurkat T lymphocyte cells were grown in Gibco's RPMI 1640 GlutaMAX medium; endogenous in cells; host or cells: Jurkat T lymphocyte cells (whole cells in suspension, 400.000 per tube). In kind it is binding.
T1 sequence (P61073 whole entry): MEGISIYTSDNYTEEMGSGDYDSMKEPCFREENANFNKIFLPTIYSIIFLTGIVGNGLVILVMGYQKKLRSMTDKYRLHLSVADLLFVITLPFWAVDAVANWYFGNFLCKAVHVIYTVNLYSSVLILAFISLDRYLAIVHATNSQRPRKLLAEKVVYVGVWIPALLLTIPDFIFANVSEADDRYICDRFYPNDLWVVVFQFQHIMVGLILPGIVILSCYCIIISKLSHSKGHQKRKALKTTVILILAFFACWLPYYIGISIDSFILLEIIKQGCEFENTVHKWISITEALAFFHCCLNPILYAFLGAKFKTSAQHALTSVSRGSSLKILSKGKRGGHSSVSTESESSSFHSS
Experimental: For in vitro experiments, cells were counted in a hemocytometer using trypan blue as contrast agent. The cell suspension was centrifuged, and the pellet resuspended in HBSS (+1 wt % BSA) to a concentration of 2 mio cells/mL. […] 200 μL of cell suspension (400.000 cells per well) were added to obtain a final peptide concentration range of 10^−5-10^−11 M. The tubes were cooled for 2 h at 8° C. to prevent internalization. The experiment was stopped by removal of the supernatant. 200 μL HBSS were added onto the cells, the suspension centrifuged, and the supernatant pooled with the respective first fractions. This step was repeated once more before the tubes containing the supernatants and the ones containing the cell pellets were subjected to activity measurement in the γ-counter.

Data set [5] in a line: Biodistribution in Daudi xenograft bearing CB-17 SCID mice. The class given is in vivo. Conditions: mouse, iv, total radioactivity, 1 h p.i., CB-17 SCID female mice.
Data set [6] has as its target T1, CXCR4. In words: Determination of inverse IC50 (invIC50): radiolabeled peptide displaced by Fc-131 on Jurkat cells.
Experimental: For in vitro experiments, cells were counted in a hemocytometer using trypan blue as contrast agent. The cell suspension was centrifuged, and the pellet resuspended in HBSS (+1 wt % BSA) to a concentration of 2 mio cells/mL. 8×3 polystyrene tubes were loaded with 25 μL of the standard ligand ^125I-Fc-131 (see 4.1, 1.00 nM in HBSS) and 25 μL of the ligand to investigate in the respective concentration (10^−4-10^−10 M, n=3 for each concentration). 200 μL of cell suspension (400.000 cells per well) were added to obtain a final peptide concentration range of 10^−5-10^−11 M. The tubes were cooled for 2 h at 8° C. to prevent internalization. The experiment was stopped by removal of the supernatant. 200 μL HBSS were added onto the cells, the suspension centrifuged, and the supernatant pooled with the respective first fractions. This step was repeated once more before the tubes containing the supernatants and the ones containing the cell pellets were subjected to activity measurement in the γ-counter.
For the determination of inverse IC50 (invIC50) values the protocol for the determination of regular IC50 values was resumed with minor changes. The peptide under investigation was radioactively labeled and a stock solution was prepared in HBSS (2.00 nM). A concentration gradient of the standard ligand Fc-131 was prepared in HBSS (10^−4-10^−10 M). A cell tube was then containing 25 μL of the radioactive peptide solution, 25 μL of the respective Fc-131 solution and 200 μL cell suspension (400.000 cells). The experiment was conducted as described above.
Where [7] appears, read: 2,000 pmol cold substance co-injected.
[8] abbreviates: co-injection of 1,000 μmol (so in the source) cold substance vs 36 pmol.

Like-named read-outs stand apart in the source and are kept apart here. Positions of bridges follow the written chain, without caps; N, C: chain ends. Non-standard residues stand in square brackets, D forms with d. Residues, ends and D or L forms follow the SMILES beside them. Chains are numbered I, II in the order given. *: point of attachment. X2 = OC[C@H]1O[C@@H](O[C@H]2[C@H](O)[C@@H](O)[C@H](*)O[C@@H]2CO)[C@H](O)[C@@H](O)[C@H]1O; X5 = CC(C)(C)[Si](F)(c1ccc(C[N+](C)(C)CC(=O)*)cc1)C(C)(C)C; DOTA = O=C(O)CN1CCN(CC(=O)O)CCN(CC(=O)*)CCN(CC(=O)O)CC1; 2Nal = N[C@@H](Cc1ccc2ccccc2c1)C(=O)O; dNMeOrn = CN[C@H](CCCN)C(=O)O; d(hCys) = N[C@H](CCS)C(=O)O; Mercaptoacetyl = O=C(CS)*; X4 = OCC1OC(*)C(O)C(O)C1O; 4Abz = Nc1ccc(C(=O)O)cc1; dDap = NC[C@@H](N)C(=O)O; Ahx = NCCCCCC(=O)O

Regarding `C[C@@H](NC(=O)[C@@H](CCCNC(=N)N)NC(=O)[C@@H](CN)NC(=O)CCCCCNC(=O)[C@@H](CNC(=O)CN1CCN(CC(=O)O)CCN(CC(=O)O)CCN(CC(=O)O)CC1)NC(=O)[C@@H](CCS[C@@H]1O[C@H](CO)[C@@H](O[C@@H]2O[C@H](CO)[C@H](O)[C@H](O)[C@H]2O)[C@H](O)[C@H]1O)NC(=O)C[N+](C)(C)Cc1ccc([Si](F)(C(C)(C)C)C(C)(C)C)cc1)C(=O)Nc1ccc(C(=O)NCCC[C@@H]2C(=O)N[C@@H](CCCNC(=N)N)C(=O)N[C@@H](Cc3ccc4ccccc4c3)C(=O)NCC(=O)N[C@H](Cc3ccc(O)cc3)C(=O)N2C)cc1` [CXCR4-SiFA-7 [Ga]] (I: X5-[d(hCys)](X2)[dDap](DOTA)[Ahx][dDap][dR][dA][4Abz] / II: cyclo([dY][dNMeOrn]R[2Nal]G); amide I:C-II:2), in data set [1] (30 min), the “Internalized in relation to 125I-Fc-131 [%]” value (“Internalized in relation … [%]” for short) worked out at 837 ± 51.4%, the “Cell-bound [%]” value turned out to be 0.11 ± 0.29% and the “Internalized [%]” value came out at 38.9 ± 1.09%. Further, in data set [1] (90 min), the “Internalization [% Fc-131]” value is 1029 % Fc-131, the “Internalized in relation … [%]” value is 1029 ± 66.7%, the “Cell-bound [%]” value is reported as 0 ± 0.41% and the “Internalized [%]” value worked out at 50.0 ± 1.12%. In data set [2], the logD7.4 is on record as −1.95 ± 0.05 (8). For the same compound, in data set [3] (setting [7]), the “uptake in liver compared to biodistribution with 36 pmol” value was 70%, the “uptake in spleen compared to biodistribution with 36 pmol” value was found to be 61% and the “uptake in tumor compared to biodistribution with 36 pmol” value came to 40%. In data set [3] (setting [8]), the “Blood activity level raised by” value was found to be 310%, the “tumor uptake compared to un-supplemented injection” value amounted to 180%, the “uptake in liver compared to un-supplemented injection” value came out at 121% and the “uptake in muscle compared to un-supplemented injection” value was 226%. In data set [3] (setting [8]), the “uptake in pancreas compared to un-supplemented injection” value is given as 196% and the “uptake in spleen compared to un-supplemented injection” value is 114%. At CXCR4 [4] (unlabeled or cold (natGa/natLu) compound vs 125I-Fc-131, Jurkat cells), this compound returned an IC50 of 6.23 ± 1.57 nM.

As for `C[C@@H](NC(=O)[C@@H](CCCNC(=N)N)NC(=O)[C@@H](CO)NC(=O)[C@@H](CO)NC(=O)[C@@H](CO)NC(=O)CS)C(=O)Nc1ccc(C(=O)NCCC[C@@H]2C(=O)N[C@@H](CCCNC(=N)N)C(=O)N[C@@H](Cc3ccc4ccccc4c3)C(=O)NCC(=O)N[C@H](Cc3ccc(O)cc3)C(=O)N2C)cc1` [Tc-CXCR4-1] (I: Mercaptoacetyl-[dS][dS][dS][dR][dA][4Abz] / II: cyclo([dY][dNMeOrn]R[2Nal]G); amide I:C-II:2), the tissue uptake at 1 h in data set [5] (Blood, read-out: % iD/g Blood) stood at 0.83 %ID/g; in data set [5] (Heart, read-out: % iD/g Heart) it was 0.54 %ID/g; in data set [5] (Intestine, read-out: % iD/g Intestine) it was 1.12 %ID/g; in data set [5] (Kidney, read-out: % iD/g Kidney), 4 %ID/g; in data set [5] (Liver, read-out: % iD/g Liver), 3.54 %ID/g; in data set [5] (Lung, read-out: % iD/g Lung), 1.79 %ID/g. Also, the tissue uptake at 1 h in data set [5] (Muscle, read-out: % iD/g Muscle) stood at 0.16 %ID/g; in data set [5] (Pancreas, read-out: % iD/g Pancreas), 0.22 %ID/g; in data set [5] (Spleen, read-out: % iD/g Spleen), 1.09 %ID/g; in data set [5] (Stomach, read-out: % iD/g Stomach), 0.86 %ID/g; in data set [5] (Tumor, read-out: % iD/g Tumor), 1.41 %ID/g. The compound further displayed a half-inhibitory concentration (IC50) at CXCR4 [4] of 20.6 ± 7.52 nM.

As for `C[C@@H](NC(=O)[C@@H](CCCNC(=N)N)NC(=O)[C@@H](CN)NC(=O)[C@@H](CO)NC(=O)[C@@H](CCSC1OC(CO)C(O)C(O)C1O)NC(=O)[C@@H](CCSC1OC(CO)C(O)C(O)C1O)NC(=O)CS)C(=O)Nc1ccc(C(=O)NCCC[C@@H]2C(=O)N[C@@H](CCCNC(=N)N)C(=O)N[C@@H](Cc3ccc4ccccc4c3)C(=O)NCC(=O)N[C@H](Cc3ccc(O)cc3)C(=O)N2C)cc1` (stereo partly drawn) [Tc-CXCR4-10] (I: Mercaptoacetyl-[d(hCys)](X4)[d(hCys)](X4)[dS][dDap][dR][dA][4Abz] / II: cyclo([2Nal]G[dY][dNMeOrn]R); amide I:C-II:4), in data set [1] (30 min), the “Internalized in relation … [%]” value turned out to be 226 ± 10.2%, the “Cell-bound [%]” value is on record as 6.75 ± 0.76% and the “Internalized [%]” value worked out at 18.8± 0.66%. In data set [1] (90 min), the “Internalization [% Fc-131]” value is recorded as 267 (90 min) % Fc-131, the “Internalized in relation … [%]” value is reported as 267 ± 8.94%, the “Cell-bound [%]” value was determined as 6.06 ± 0.34% and the “Internalized [%]” value was determined as 31.7 ± 0.52%. Moreover, in data set [2], the logD7.4 is given as −2.32 ± 0.02 (7). At CXCR4 [6], this compound returned an IC50 of 5.13 ± 1.81 nM.
